{"source": "patent US20240247298A1", "about": "“METHOD FOR DETECTING LIVE LACTIC ACID BACTERIA WITH CARBOHYDRATE METABOLISM ACTIVITY” (KABUSHIKI KAISHA YAKULT HONSHA, priority 2021, published 2024)", "format_in_all_cases": "cell-based, Lacticaseibacillus paracasei YIT 9029", "key": {"LcS [1]": {"test_system": "LcS", "assay": "cF excretion activity by addition of various saccharides of LcS (cFDA/PI double staining, flow cytometry)", "conditions": "LcS from New Yakult suspended in 1% saccharide solution; cFDA 50 μM, PI 30 μM", "protocol": "(§1) A beverage or food containing LcS (New Yakult: manufactured by Yakult Honsha Co., Ltd.) stored at about 4° C. within 16 days after production was diluted 10-fold with DPBS, then washed by centrifugation three times with DPBS, and the cell pellet was collected. The cell pellet obtained above was suspended in a 1% (V/W) solution in which a saccharide shown in Table 1 was dissolved in purified water. Further, the suspension was diluted with DPBS so that the cell concentration in the suspension was about 10^6 cells/mL, and cFDA was added thereto at a final concentration of 50 μM, and the resultant was left to stand at 30° C. for 15 minutes. Subsequently, propidium iodide was added thereto at a final concentration of 30 μM, and the resultant was left to stand at room temperature for 15 minutes, and then subjected to FACSAriaTM fusion (manufactured by Becton Dickinson) to measure the cF fluorescence intensity. A case where 90% or more of the total bacterial cells were counted as cF^- was determined to have cF excretion activity. In Table 1, those determined to have cF excretion activity are indicated by +, and those determined to have no cF excretion activity are indicated by -. The assimilation of a saccharide was examined using AP[…] (manufactured by bioMérieux Japan Co., Ltd.), which is a kit for identifying bacteria. A saccharide that can be assimilated by LcS is indicated by +, and a saccharide that cannot be assimilated by LCS is indicated by -."}, "LcS [2]": {"test_system": "LcS", "assay": "Assimilation of a saccharide examined using API50cH", "set-up": "key: A saccharide that can be assimilated by LcS is indicated by +; a saccharide that cannot be assimilated by LCS is indicated by −", "conditions": "assimilation by LcS, API50cH kit", "protocol": "as §1, with “The” for “A beverage or food containing LcS (New Yakult: manufactured by Yakult Honsha Co., Ltd.) stored at about 4° C. within 16 days after production was diluted 10-fold with DPBS, then washed by centrifugation three times with DPBS, and the cell pellet was collected. The”"}, "LcS [3]": {"test_system": "LcS", "assay": "Time course of cF accumulation and cF excretion of LcS", "protocol": "A cultured bacterial solution of LcS in MRS medium was washed by centrifugation with Dulbecco's PBS (DPBS: manufactured by Thermo Fisher Scientific, Inc.), thereby removing saccharides. CFDA was added to the DPBS suspension of LcS obtained above at a final concentration of 50 μM (t=0), and cF accumulation from 0 to 20 minutes thereafter was examined by Gallios. In addition, to the DPBS suspension of LcS obtained above, CFDA was added at a final concentration of 50 μM, and the resultant was left to stand at 30° C. for 30 minutes to allow cF to accumulate in the bacterial cells. Subsequently, glucose was added at a final concentration of 10 mM (t=0), and cF excretion in 15 minutes thereafter was examined. Further, to the DPBS suspension of LcS obtained above, CFDA was added at a final concentration of 50 μM, and the resultant was left to stand at 30° C. for 30 minutes to allow cF to accumulate in the bacterial cells. Subsequently, glucose was added at a final concentration of 0.001 mM, 0.01 mM, 0.1 mM, or 1 mM (t=0), and cF excretion in 15 minutes thereafter was examined."}}, "data": [{"compound": "O=CC[C@@H](O)[C@@H](O)[C@H](O)CO", "note": "[2-deoxy-D-galactose]", "values": [{"measurement": "cF excretion activity", "setting": "LcS [1]", "value": "− (those determined to have no cF excretion activity are indicated by −)"}]}, {"compound": "O=CC[C@@H](O)[C@H](O)[C@H](O)CO", "note": "[2-deoxy-D-glucose]", "values": [{"measurement": "cF excretion activity", "setting": "LcS [1]", "value": "− (those determined to have no cF excretion activity are indicated by −)"}]}, {"compound": "O=C[C@H](O)[C@@H](O)[C@@H](O)[C@H](O)CO", "note": "[D-galactose]", "values": [{"measurement": "cF excretion activity", "setting": "LcS [1]", "value": "+ (A case where 90% or more of the total bacterial cells were counted as cF^− was determined to have cF excretion activity)"}, {"measurement": "Assimilability", "setting": "LcS [2]", "value": "+"}]}, {"compound": "O=C[C@H](O)[C@@H](O)[C@H](O)[C@H](O)CO", "note": "[D-glucose]", "values": [{"measurement": "cF excretion", "setting": "LcS [3]; glucose final concentration 0.001 mM", "value": "significant delay in excretion"}, {"measurement": "cF excretion", "setting": "LcS [3]; glucose final concentration 0.01 mM", "value": "slight delay in excretion"}, {"measurement": "time after which cF began to be rapidly excreted", "setting": "LcS [3]; glucose final concentration 10 mM, LcS with cF accumulated in advance", "value": "about 3 minutes"}, {"measurement": "cF excretion activity", "setting": "LcS [1]", "value": "+ (A case where 90% or more of the total bacterial cells were counted as cF^− was determined to have cF excretion activity)"}, {"measurement": "Assimilability", "setting": "LcS [2]", "value": "+"}]}, {"compound": "O=C[C@@H](O)[C@@H](O)[C@H](O)[C@H](O)CO", "note": "[D-mannose]", "values": [{"measurement": "cF excretion activity", "setting": "LcS [1]", "value": "+ (A case where 90% or more of the total bacterial cells were counted as cF^− was determined to have cF excretion activity)"}, {"measurement": "Assimilability", "setting": "LcS [2]", "value": "+"}]}, {"compound": "O=C[C@H](O)[C@@H](O)[C@@H](O)CO", "note": "[L-arabinose]", "values": [{"measurement": "cF excretion activity", "setting": "LcS [1]", "value": "− (those determined to have no cF excretion activity are indicated by −)"}, {"measurement": "Assimilability", "setting": "LcS [2]", "value": "−"}]}, {"compound": "C[C@H](O)[C@H](O)[C@@H](O)[C@@H](O)C=O", "note": "[L-rhamnose]", "values": [{"measurement": "cF excretion activity", "setting": "LcS [1]", "value": "− (those determined to have no cF excretion activity are indicated by −)"}, {"measurement": "Assimilability", "setting": "LcS [2]", "value": "−"}]}, {"compound": "O=C(CO)[C@@H](O)[C@H](O)[C@@H](O)CO", "note": "[L-sorbose]", "values": [{"measurement": "cF excretion activity", "setting": "LcS [1]", "value": "− (those determined to have no cF excretion activity are indicated by −)"}, {"measurement": "Assimilability", "setting": "LcS [2]", "value": "+"}]}, {"compound": "OC[C@H]1O[C@@H](O[C@H]2[C@H](O)[C@@H](O)C(O)O[C@@H]2CO)[C@H](O)[C@@H](O)[C@H]1O", "note": "(stereo partly shown) [Lactose]", "values": [{"measurement": "cF excretion activity", "setting": "LcS [1]", "value": "− (those determined to have no cF excretion activity are indicated by −)"}, {"measurement": "Assimilability", "setting": "LcS [2]", "value": "+"}]}, {"compound": "OC[C@H]1O[C@@](CO)(O[C@H]2O[C@H](CO)[C@@H](O)[C@H](O)[C@H]2O)[C@@H](O)[C@@H]1O", "note": "[sucrose]", "values": [{"measurement": "cF excretion activity", "setting": "LcS [1]", "value": "− (those determined to have no cF excretion activity are indicated by −)"}, {"measurement": "Assimilability", "setting": "LcS [2]", "value": "+"}]}, {"compound": "carboxyfluorescein diacetate [cFDA]", "values": [{"measurement": "time after which cF accumulation amount was almost saturated", "setting": "LcS [3]; cFDA 50 μM, no sugar, DPBS suspension of LcS", "value": 20, "unit": "min"}]}]}
